Experimental data: ChEMBL document CHEMBL5634109, “Synthesis and mechanism of action of new purine derivatives against triple negative breast cancer” (Eur J Med Chem, 2023)
The source made the active and inactive calls. The calls are words filed in the database; no cut-off is given here.

Key:
[1] = target: Casein kinase I isoform epsilon (Homo sapiens, UniProt P49674); test: Inhibition of CK1epsilon (unknown origin)
HepG2 = test: Antiproliferative activity against human HepG2 cells assessed as reduction in cell viability measured for 48 hrs by MTT assay; format: functional, cell-based; conditions: HepG2, 48 h
HCT-116 = test: Antiproliferative activity against human HCT-116 cells assessed as reduction in cell viability measured for 48 hrs by MTT assay; format: functional, cell-based; conditions: HCT-116, 48 h
MCF7 = test: Antiproliferative activity against human MCF7 cells assessed as reduction in cell viability measured for 48 hrs by MTT assay; format: functional, cell-based; conditions: MCF7, 48 h
MDA-MB-468 = test: Antiproliferative activity against human MDA-MB-468 cells assessed as reduction in cell viability measured for 48 hrs by MTT assay; format: functional, cell-based; conditions: MDA-MB-468, 48 h
[2] = Antiproliferative activity against human HUVEC cells assessed as reduction in cell viability measured for 48 hrs by MTT assay; format: toxicity, cell-based
[3] = Antiproliferative activity against human HEK293 cells assessed as reduction in cell viability measured for 48 hrs by MTT assay; format: toxicity, cell-based
MDA-MB-231 [4] = test: Induction of apoptosis in human MDA-MB-231 cells assessed as apoptotic cells at 4 uM incubated for 24 hrs by Annexin V-FITC/PI staining based analysis; format: functional
MDA-MB-231 [5] = test: Induction of apoptosis in human MDA-MB-231 cells assessed as apoptotic cells at 40 uM incubated for 12 hrs by Annexin V-FITC/PI staining based analysis; format: functional
MDA-MB-231 [6] = test: Inhibition of cell migration human MDA-MB-231 cells assessed as migration distance at 25 uM incubated for 24 hrs by wound healing assay (reference value: 642.72 micrometer); format: functional
MDA-MB-231 [7] = test: Inhibition of cell migration human MDA-MB-231 cells at 0.01 to 0.4 uM incubated for 24 hrs by DAPI staining based analysis; format: functional; conditions: dose 0.01-0.4 µM
HUVEC = test: Antiangiogenesis activity in HUVEC cells at 0.03 to 0.3 uM incubated for 12 hrs by microscopic analysis; format: functional, cell-based; conditions: Homo sapiens, dose 0.03-0.3 µM
MDA-MB-231 [8] = test: Antitumor activity against human MDA-MB-231 cells xenografted in nude mouse assessed as decrease in tumor size at 10 to 20 mg/kg, ip measured for 3 days; format: functional, organism-based; conditions: dose 10-20 mg/kg, time 3.0 day
MDA-MB-231 [9] = test: Antitumor activity against human MDA-MB-231 cells xenografted in nude mouse assessed as inhibition of lung metastasis in tumor at 10 mg/kg, ip measured for 3 days; format: functional, organism-based; conditions: time 3.0 day

Chain of Casein kinase I isoform epsilon (P49674 whole entry, canonical isoform): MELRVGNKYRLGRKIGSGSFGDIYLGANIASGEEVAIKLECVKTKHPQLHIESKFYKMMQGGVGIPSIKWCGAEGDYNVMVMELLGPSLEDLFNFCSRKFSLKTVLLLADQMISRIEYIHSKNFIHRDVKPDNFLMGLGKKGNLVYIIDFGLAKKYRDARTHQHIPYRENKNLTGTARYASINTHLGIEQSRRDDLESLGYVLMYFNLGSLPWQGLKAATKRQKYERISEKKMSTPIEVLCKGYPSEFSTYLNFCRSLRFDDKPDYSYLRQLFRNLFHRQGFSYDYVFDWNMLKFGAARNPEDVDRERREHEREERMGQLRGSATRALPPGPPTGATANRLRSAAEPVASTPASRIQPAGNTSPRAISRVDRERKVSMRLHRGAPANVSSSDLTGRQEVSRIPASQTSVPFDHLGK

IC50 [1]: 296 nM
IC50 (HepG2): 1680 nM
IC50 (HCT-116): 340 nM
IC50 (MCF7): 430 nM
IC50 (MDA-MB-468): 2820 nM
Compound: OCCN1CCC(C2CCN(c3nc(NCc4ccc(F)c(Cl)c4)c4ncn(CC5CC5)c4n3)CC2)CC1
IC50 at 48 h [2]: 4260 nM
IC50 at 48 h [3]: 4320 nM
Activity (MDA-MB-231 [4]): 97.1%
Activity (MDA-MB-231 [5]): >95%
Activity (MDA-MB-231 [6]): 15.08 um
inhibition (MDA-MB-231 [7]): Active
Activity (HUVEC): Active
Activity (MDA-MB-231 [8]): Active
Activity (MDA-MB-231 [9]): Active
